Organism: Rattus norvegicus
Assay: DrugMatrix - Regimen: Daily Repeat
Format: toxicity, organism-based, Sprague-Dawley
Set-up: regimen Daily Repeat, gender Male, age 6-8 weeks
Settings: in vivo, po, 2000 mg/kg, route oral GAVAGE, dose level High, […]; for ABSOLUTE BASOPHIL / ABSOLUTE EOSINOPHIL / ABSOLUTE LYMPHOCYTE / ABSOLUTE MONOCYTE / ABSOLUTE SEGMENTED NEUTROPHIL / BASOPHIL / EOSINOPHIL / ERYTHROCYTE COUNT / HEMATOCRIT / HEMOGLOBIN / LEUKOCYTE COUNT / LYMPHOCYTE / MEAN CORPUSCULAR HEMOGLOBIN / MEAN CORPUSCULAR HEMOGLOBIN CONCENTRATION / MEAN CORPUSCULAR VOLUME / MONOCYTE / NEUTROPHIL / NUCLEATED RED BLOOD CELLS / PLATELET COUNT: tissue Blood; for ALANINE AMINOTRANSFERASE / ALBUMIN / ALKALINE PHOSPHATASE / ASPARTATE AMINOTRANSFERASE / BLOOD UREA NITROGEN / CARBON DIOXIDE / CHLORIDE / CHOLESTEROL / CREATINE PHOSPHOKINASE / CREATININE / GLUCOSE / LACTATE DEHYDROGENASE / LIPASE / PHOSPHORUS / POTASSIUM / SODIUM / TOTAL BILIRUBIN / TOTAL PROTEIN / URIC ACID: tissue Plasma

Structure (SMILES): COc1ccc2[nH]cc(CCNC(C)=O)c2c1 [MELATONIN]
- ABSOLUTE BASOPHIL (72 h, time 3 day): 0 CELLS/uL
- ABSOLUTE EOSINOPHIL (72 h, time 3 day): 23.67 CELLS/uL
- ABSOLUTE LYMPHOCYTE (72 h, time 3 day): 9249.33 CELLS/uL
- ABSOLUTE MONOCYTE (72 h, time 3 day): 250.67 CELLS/uL
- ABSOLUTE SEGMENTED NEUTROPHIL (72 h, time 3 day): 1876.33 CELLS/uL
- BASOPHIL (72 h, time 3 day): 0%
- EOSINOPHIL (72 h, time 3 day): 0.33%
- ERYTHROCYTE COUNT (72 h, time 3 day): 5.38 x10E6/uL
- HEMATOCRIT (72 h, time 3 day): 32.93%
- HEMOGLOBIN (72 h, time 3 day): 13.5 G/DL
- LEUKOCYTE COUNT (72 h, time 3 day): 11.4 x10E3/uL
- LYMPHOCYTE (72 h, time 3 day): 82.33%
- MEAN CORPUSCULAR HEMOGLOBIN (72 h, time 3 day): 25.17 pg
- MEAN CORPUSCULAR HEMOGLOBIN CONCENTRATION (72 h, time 3 day): 41.03 G/DL
- MEAN CORPUSCULAR VOLUME (72 h, time 3 day): 61.27 fL
- MONOCYTE (72 h, time 3 day): 2%
- NEUTROPHIL (72 h, time 3 day): 15.33%
- NUCLEATED RED BLOOD CELLS (72 h, time 3 day): 0 /100WBC
- PLATELET COUNT (72 h, time 3 day): 1209.67 x10E3/uL
- ALANINE AMINOTRANSFERASE (72 h, time 3 day): 115 u/L
- ALBUMIN (72 h, time 3 day): 3.3 G/DL
- ALKALINE PHOSPHATASE (72 h, time 3 day): 505.67 u/L
- ASPARTATE AMINOTRANSFERASE (72 h, time 3 day): 128.33 u/L
- BLOOD UREA NITROGEN (72 h, time 3 day): 15 mg/dL
- CARBON DIOXIDE (72 h, time 3 day): 25.67 mmol/L
- CHLORIDE (72 h, time 3 day): 100.33 MEQ/L
- CHOLESTEROL (72 h, time 3 day): 84 mg/dL
- CREATINE PHOSPHOKINASE (72 h, time 3 day): 757.33 u/L
- CREATININE (72 h, time 3 day): 0.38 mg/dL
- GLUCOSE (72 h, time 3 day): 155 mg/dL
- LACTATE DEHYDROGENASE (72 h, time 3 day): 369.33 u/L
- LIPASE (72 h, time 3 day): 11.67 u/L
- PHOSPHORUS (72 h, time 3 day): 13.07 mg/dL
- POTASSIUM (72 h, time 3 day): 6.08 MEQ/L
- SODIUM (72 h, time 3 day): 140.4 MEQ/L
- TOTAL BILIRUBIN (72 h, time 3 day): 0.5 mg/dL
- TOTAL PROTEIN (72 h, time 3 day): 4.6 G/DL
- URIC ACID (72 h, time 3 day): 1.43 mg/dL
- ABSOLUTE BASOPHIL (120 h, time 5 day): 0 CELLS/uL
- ABSOLUTE EOSINOPHIL (120 h, time 5 day): 0 CELLS/uL
- ABSOLUTE LYMPHOCYTE (120 h, time 5 day): 18071 CELLS/uL
- ABSOLUTE MONOCYTE (120 h, time 5 day): 251 CELLS/uL
- ABSOLUTE SEGMENTED NEUTROPHIL (120 h, time 5 day): 1211.33 CELLS/uL
- BASOPHIL (120 h, time 5 day): 0%
- EOSINOPHIL (120 h, time 5 day): 0%
- ERYTHROCYTE COUNT (120 h, time 5 day): 6.07 x10E6/uL
- HEMATOCRIT (120 h, time 5 day): 38.13%
- HEMOGLOBIN (120 h, time 5 day): 15.13 G/DL
- LEUKOCYTE COUNT (120 h, time 5 day): 19.53 x10E3/uL
- LYMPHOCYTE (120 h, time 5 day): 92.67%
- MEAN CORPUSCULAR HEMOGLOBIN (120 h, time 5 day): 24.9 pg
- MEAN CORPUSCULAR HEMOGLOBIN CONCENTRATION (120 h, time 5 day): 39.7 G/DL
- MEAN CORPUSCULAR VOLUME (120 h, time 5 day): 62.77 fL
- MONOCYTE (120 h, time 5 day): 1.33%
- NEUTROPHIL (120 h, time 5 day): 6%
- NUCLEATED RED BLOOD CELLS (120 h, time 5 day): 0 /100WBC
- PLATELET COUNT (120 h, time 5 day): 1278.33 x10E3/uL
- ALANINE AMINOTRANSFERASE (120 h, time 5 day): 124.67 u/L
- ALBUMIN (120 h, time 5 day): 3.73 G/DL
- ALKALINE PHOSPHATASE (120 h, time 5 day): 553.33 u/L
- ASPARTATE AMINOTRANSFERASE (120 h, time 5 day): 154.67 u/L
- BLOOD UREA NITROGEN (120 h, time 5 day): 19 mg/dL
- CARBON DIOXIDE (120 h, time 5 day): 32 mmol/L
- CHLORIDE (120 h, time 5 day): 100.33 MEQ/L
- CHOLESTEROL (120 h, time 5 day): 99 mg/dL
- CREATINE PHOSPHOKINASE (120 h, time 5 day): 788.67 u/L
- CREATININE (120 h, time 5 day): 0.24 mg/dL
- GLUCOSE (120 h, time 5 day): 136 mg/dL
- LACTATE DEHYDROGENASE (120 h, time 5 day): 320.67 u/L
- LIPASE (120 h, time 5 day): 12.33 u/L
- PHOSPHORUS (120 h, time 5 day): 11.03 mg/dL
- POTASSIUM (120 h, time 5 day): 6.53 MEQ/L
- SODIUM (120 h, time 5 day): 142.13 MEQ/L
- TOTAL BILIRUBIN (120 h, time 5 day): 0.4 mg/dL
- TOTAL PROTEIN (120 h, time 5 day): 5.07 G/DL
- URIC ACID (120 h, time 5 day): 1.2 mg/dL

Source: ChEMBL document CHEMBL3885881, “DrugMatrix”
